Measured values published in PMC8161026, “Synthesis and Anticancer Activity Evaluation of 5-[2-Chloro-3-(4-nitrophenyl)-2-propenylidene]-4-thiazolidinones” (Molecules, 2021).

Experiments:
[1] = test system: Leukemia subpanel; test: cells
Experimental: (§1) At the first stage of biological activity study, the antitumor activity screening of the selected compounds 2b, 2c, 2f, 2h, and 2j was performed according to the NCI DTP (USA) standard protocol at the concentrations ranging from 10^−4 to 10^−8 M toward 60 tumor cell lines. The percentage of growth was evaluated spectrophotometrically versus controls not treated with test agents after 48 h exposure and using SRB protein assay to estimate cell viability or growth. Dose–response parameters were calculated for each cell line: GI50—molar concentration of the compound that inhibits 50% net cell growth; TGI—molar concentration of the compound leading to the total inhibition; and LC50—molar concentration of the compound leading to 50% net cell death. Furthermore, mean graph midpoints (MG_MID) were calculated for each of the parameters, giving an average activity parameter over all cell lines for the tested compound. For the MG_MID calculation, insensitive cell lines were included with the highest concentration tested.
(§2) The selectivity index (SI) obtained by dividing the full panel MG-MID (mM) of the tested compound by their individual subpanel MG-MID (mM) was considered as a measure of selectivity of anticancer activity (Table 3).
(§3) Primary anticancer assay was performed on a panel of approximately sixty human tumor cell lines derived from nine neoplastic diseases, in accordance with the protocol of the Drug Evaluation Branch, National Cancer Institute, Bethesda. Tested compounds were added to the culture at a single concentration (10^−5 M) and the cultures were incubated for 48 h. End point determinations were made with a protein binding dye, sulforhodamine B (SRB). […] The percentage growth was evaluated spectrophotometrically versus controls not treated with test agents.
(§4) Dose–response parameters (GI50, TGI, LC50) were calculated for each compound. […] The drug concentration resulting in total growth inhibition (TGI) was calculated from Ti = Tz. The LC50 (concentration of drug resulting in a 50% reduction in the measured protein at the end of the drug treatment as compared to that at the beginning) indicating a net loss of cells following treatment was calculated from [(Ti − Tz)/Tz] × 100 = −50 (2). Values were calculated for each of these parameters if the level of activity was reached; however, if the effect was not reached or was excessive, the value for that parameter was expressed as more or less than the maximum or minimum concentration tested.

[2] = test system: Non-Small Cell Lung Cancer subpanel; test: cells
Experimental: as §1, §2, §3, §4

[3] = test system: Colon Cancer subpanel; test: cells
Experimental: as §1, §2, §3, §4

[4] = test system: Melanoma subpanel; test: cells
Experimental: as §1, §2, §3, §4

[5] = test system: Renal Cancer subpanel; test: cells
Experimental: as §1, §2, §3, §4

[6] = test system: CNS Cancer subpanel; test: cells
Experimental: as §1, §2, §3, §4

[7] = test system: Prostate Cancer subpanel; test: cells
Experimental: as §1, §2, §3, §4

[8] = test system: Breast Cancer subpanel; test: cells
Experimental: as §1, §2, §3, §4

[9] = test system: Ovarian Cancer subpanel; test: cells
Experimental: as §1, §2, §3, §4

[10] = test system: EKVX; test: cells; settings: Homo sapiens, 48 h
[11] = test system: A549/ATCC; settings: A549/ATCC (Non-Small Cell Lung Cancer), 48 h, SRB
[12] = test system: 786-0; test: cells; settings: Homo sapiens, 786-0, 48 h
[13] = test system: SN12C; test: cells; settings: Homo sapiens, 48 h
[14] = test system: K-562; settings: K-562 (Leukemia), 48 h, SRB
[15] = test system: HOP-92; test: NCI DTP 60 cell line screen, SRB
[16] = test system: OVCAR-8; test: NCI DTP 60 cell line screen, SRB
[17] = test system: BT-549; test: NCI DTP 60 cell line screen, SRB
[18] = test system: CAKI-1; test: NCI DTP 60 cell line screen, SRB
[19] = test system: NCI-322M; test: NCI DTP 60 cell line screen, SRB; settings: 48 h
[20] = Homo sapiens, read-out: MG_MID, GI50
[21] = Homo sapiens, read-out: MG_MID, LC50
[22] = full panel MG_MID / Leukemia subpanel MG_MID
[23] = full panel MG_MID / Non-Small Cell Lung Cancer subpanel MG_MID
[24] = full panel MG_MID / Colon Cancer subpanel MG_MID
[25] = full panel MG_MID / Melanoma subpanel MG_MID
[26] = full panel MG_MID / Renal Cancer subpanel MG_MID
[27] = full panel MG_MID / CNS Cancer subpanel MG_MID
[28] = full panel MG_MID / Prostate Cancer subpanel MG_MID
[29] = full panel MG_MID / Breast Cancer subpanel MG_MID
[30] = full panel MG_MID / Ovarian Cancer subpanel MG_MID

O=C1NC(=S)S/C1=C\C(Cl)=C\c1ccc([N+](=O)[O-])cc1 [Compound 2b, 5-[(Z,2Z)-2-Chloro-3-(4-nitrophenyl)-2-propenylidene]-2-thioxo-4-thiazolidinone]
GI50 [1, 20]: 1.51 µM
CC50 [1, 21]: > 50 µM
MG_MID, TGI ([1]; Leukemia panel mean): 20.2 µM
SI (selectivity index), GI50 [1, 22]: 3.17
SI (selectivity index), LC50 [1, 22]: <0.87
SI (selectivity index), TGI [1, 22]: 1.00
GI50 [2, 20]: 3.79 µM
CC50 [2, 21]: 48.6 µM
MG_MID, TGI ([2]; Non-Small Cell Lung Cancer panel mean): 29.7 µM
SI (selectivity index), GI50 [2, 23]: 1.26
SI (selectivity index), LC50 [2, 23]: 0.90
SI (selectivity index), TGI [2, 23]: 0.68
MG_MID, TGI ([3]; Colon Cancer panel mean): 11.5 µM
GI50 [3, 20]: 3.27 µM
CC50 [3, 21]: 35.4 µM
SI (selectivity index), GI50 [3, 24]: 1.46
SI (selectivity index), LC50 [3, 24]: 1.23
SI (selectivity index), TGI [3, 24]: 1.77
GI50 [4, 20]: 5.57 µM
CC50 [4, 21]: 36.8 µM
MG_MID, TGI ([4]; Melanoma panel mean): 16.1 µM
SI (selectivity index), GI50 [4, 25]: 0.86
SI (selectivity index), LC50 [4, 25]: 1.18
SI (selectivity index), TGI [4, 25]: 1.26
GI50 [5, 20]: 6.23 µM
CC50 [5, 21]: 42.9 µM
MG_MID, TGI ([5]; Renal Cancer panel mean): 18.7 µM
SI (selectivity index), GI50 [5, 26]: 0.77
SI (selectivity index), LC50 [5, 26]: 1.01
SI (selectivity index), TGI [5, 26]: 1.09
MG_MID, TGI ([6]; CNS Cancer panel mean): 22.4 µM
GI50 [6, 20]: 6.98 µM
CC50 [6, 21]: 45.4 µM
SI (selectivity index), GI50 [6, 27]: 0.69
SI (selectivity index), LC50 [6, 27]: 0.96
SI (selectivity index), TGI [6, 27]: 0.91
GI50 [7, 20]: 5.89 µM
CC50 [7, 21]: 39.2 µM
MG_MID, TGI ([7]; Prostate Cancer panel mean): 32.1 µM
SI (selectivity index), GI50 [7, 28]: 0.81
SI (selectivity index), LC50 [7, 28]: 1.11
SI (selectivity index), TGI [7, 28]: 0.63
MG_MID, TGI ([8]; Breast Cancer panel mean): 28.4 µM
GI50 [8, 20]: 4.38 µM
CC50 [8, 21]: 46.7 µM
SI (selectivity index), GI50 [8, 29]: 1.09
SI (selectivity index), LC50 [8, 29]: 0.93
SI (selectivity index), TGI [8, 29]: 0.71
GI50 [9, 20]: 6.68 µM
CC50 [9, 21]: 42.8 µM
MG_MID, TGI ([9]; Ovarian Cancer panel mean): 21.0 µM
SI (selectivity index), GI50 [9, 30]: 0.72
SI (selectivity index), LC50 [9, 30]: 1.02
SI (selectivity index), TGI [9, 30]: 0.97
GI50 [10]: 2.76 µM
CC50 ([10]; read-out: LC50): > 50 µM
TGI [11]: > 50 µM
GI50 [12]: 9.4 µM
CC50 ([12]; read-out: LC50): 37.6 µM
GI50 [13]: 4.11 µM
CC50 ([13]; read-out: LC50): > 50 µM
TGI [14]: 42.5 µM
TGI ([15]; HOP-92 (Non-Small Cell Lung Cancer), 48 h, SRB): > 50 µM
GI50 ([15]; Homo sapiens, HOP-92, 48 h): 8.48 µM
CC50 ([15]; Homo sapiens, HOP-92, 48 h, read-out: LC50): > 50 µM
GI50 ([16]; Homo sapiens, OVCAR-8, 48 h): 5.08 µM
CC50 ([16]; Homo sapiens, OVCAR-8, 48 h, read-out: LC50): 47.9 µM
TGI ([16]; OVCAR-8 (Ovarian Cancer), 48 h, SRB): 15.6 µM
TGI ([17]; BT-549 (Breast Cancer), 48 h, SRB): 4.74 µM
GI50 ([17]; Homo sapiens, BT-549, 48 h): 1.47 µM
CC50 ([17]; Homo sapiens, BT-549, 48 h, read-out: LC50): 27.2 µM
TGI ([18]; CAKI-1 (Renal Cancer), 48 h, SRB): 25.2 µM
GI50 ([18]; Homo sapiens, CAKI-1, 48 h): 7.14 µM
CC50 ([18]; Homo sapiens, CAKI-1, 48 h, read-out: LC50): > 50 µM
GI50 ([19]; Homo sapiens, NCI-322M): 6.51 µM
CC50 ([19]; Homo sapiens, NCI-322M, read-out: LC50): > 50 µM
TGI ([19]; NCI-322M (Non-Small Cell Lung Cancer), SRB): 18.8 µM
